# Test results from article PMC9090415, “Discovery of small molecule inhibitors of Plasmodium falciparum apicoplast DNA polymerase” (Journal of Enzyme Inhibition and Medicinal Chemistry, 2022).
# Biological target: P. falciparum apicoplast DNA polymerase (Pf-apPOL) (Plasmodium falciparum, UniProt Q8ILY1)
# Test: Fluorescence-based high-throughput DNA polymerase assay (molecular beacon), primary screen and dose-response;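 as to % inhibition Apol 40': compound concentration given in µM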
# Assay type: biochemical
# Conditions: for DNA Pol: 90 min, 10 µM
# Outline: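 Single-point screening used 10 µM compound with 20 nM polymerase, 20 nM hairpin substrate and 6 µM dNTPs for 90 min at 25 °C. Confirmatory titrations (2.5–80 µM) followed fluorescence at three times, and IC50 was derived from a fit including a cooperativity term n.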
# [1] = "DNA Pol" of the 186 hits list (screen value)
# Chain of P. falciparum apicoplast DNA polymerase (Pf-apPOL) (Q8ILY1 entry or part of it): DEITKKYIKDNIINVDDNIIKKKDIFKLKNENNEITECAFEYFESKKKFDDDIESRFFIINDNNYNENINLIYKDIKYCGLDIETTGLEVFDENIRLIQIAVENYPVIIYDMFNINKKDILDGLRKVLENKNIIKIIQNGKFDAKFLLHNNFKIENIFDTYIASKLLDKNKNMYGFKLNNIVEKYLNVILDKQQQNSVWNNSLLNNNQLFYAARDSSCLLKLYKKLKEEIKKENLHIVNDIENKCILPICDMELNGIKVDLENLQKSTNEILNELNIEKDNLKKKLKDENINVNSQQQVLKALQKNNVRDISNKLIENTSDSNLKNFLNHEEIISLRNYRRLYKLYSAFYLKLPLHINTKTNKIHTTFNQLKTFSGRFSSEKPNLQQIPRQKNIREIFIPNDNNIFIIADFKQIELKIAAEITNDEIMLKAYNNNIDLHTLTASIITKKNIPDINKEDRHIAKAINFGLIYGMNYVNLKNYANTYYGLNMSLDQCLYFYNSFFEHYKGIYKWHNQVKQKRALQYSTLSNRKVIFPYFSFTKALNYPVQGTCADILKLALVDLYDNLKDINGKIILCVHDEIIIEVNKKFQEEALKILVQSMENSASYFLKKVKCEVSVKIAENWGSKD
smiles,measurement,setting,value
CCOC(=O)C1=C2c3cc(OC)c(OC)cc3CC(C)(C)N2C(=O)C1=O [KU0193659],DNA Pol,[1],50
same,% inhibition Apo pol 10',"DRC-1, concentration 2.5",0.5902%
same,% inhibition Apo pol 10',"DRC-1, concentration 5",6.068%
same,% inhibition Apo pol 10',"DRC-1, concentration 10",24.2091%
same,% inhibition Apo pol 10',"DRC-1, concentration 20",48.7622%
same,% inhibition Apo pol 10',"DRC-1, concentration 40",76.2717%
same,% inhibition Apo pol 10',"DRC-1, concentration 80",83.8971%
same,% inhibition Apol 90',"DRC-1, concentration 2.5",2.413%
same,% inhibition Apol 90',"DRC-1, concentration 5",7.311%
same,% inhibition Apol 90',"DRC-1, concentration 10",23.2588%
same,% inhibition Apol 90',"DRC-1, concentration 20",44.3755%
same,% inhibition Apol 90',"DRC-1, concentration 40",72.221%
same,% inhibition Apol 90',"DRC-1, concentration 80",80.3053%
same,% inhibition apPOL 180',"DRC-1, concentration 2.5",2.939%
same,% inhibition apPOL 180',"DRC-1, concentration 5",8.013%
same,% inhibition apPOL 180',"DRC-1, concentration 10",23.6538%
same,% inhibition apPOL 180',"DRC-1, concentration 20",40.1403%
same,% inhibition apPOL 180',"DRC-1, concentration 40",67.3971%
same,% inhibition apPOL 180',"DRC-1, concentration 80",76.7403%
same,% inhibition Apo pol 5',"DRC-2, concentration 2.5",-4%
same,% inhibition Apo pol 5',"DRC-2, concentration 5",-4.49%
same,% inhibition Apo pol 5',"DRC-2, concentration 10",16%
same,% inhibition Apo pol 5',"DRC-2, concentration 20",26%
same,% inhibition Apo pol 5',"DRC-2, concentration 40",41%
same,% inhibition Apo pol 5',"DRC-2, concentration 80",41%
same,% inhibition Apol 40',"DRC-2, concentration 2.5",-2.41%
same,% inhibition Apol 40',"DRC-2, concentration 5",-3%
same,% inhibition Apol 40',"DRC-2, concentration 10",21%
same,% inhibition Apol 40',"DRC-2, concentration 20",39%
same,% inhibition Apol 40',"DRC-2, concentration 40",57%
same,% inhibition Apol 40',"DRC-2, concentration 80",57%
same,% inhibition ApPOL 90',"DRC-2, concentration 2.5",-1.64%
same,% inhibition ApPOL 90',"DRC-2, concentration 5",-0.605%
same,% inhibition ApPOL 90',"DRC-2, concentration 10",22%
same,% inhibition ApPOL 90',"DRC-2, concentration 20",43%
same,% inhibition ApPOL 90',"DRC-2, concentration 40",64%
same,% inhibition ApPOL 90',"DRC-2, concentration 80",62%
same,% inhibition apPOL 180',"DRC-2, concentration 2.5",-2%
same,% inhibition apPOL 180',"DRC-2, concentration 5",1.35%
same,% inhibition apPOL 180',"DRC-2, concentration 10",23%
same,% inhibition apPOL 180',"DRC-2, concentration 20",46%
same,% inhibition apPOL 180',"DRC-2, concentration 40",68%
same,% inhibition apPOL 180',"DRC-2, concentration 80",66%
same,DNA Pol,"primary screen value, DNA Pol",50
COc1ccc(-c2n[nH]cc2Oc2ccc(Cl)cc2)c(O)c1 [KU0029837],DNA Pol,[1],54
same,% inhibition Apo pol 10',"DRC-1, concentration 2.5",13.0965%
same,% inhibition Apo pol 10',"DRC-1, concentration 5",22.8396%
same,% inhibition Apo pol 10',"DRC-1, concentration 10",52.0762%
same,% inhibition Apo pol 10',"DRC-1, concentration 20",64.1383%
same,% inhibition Apo pol 10',"DRC-1, concentration 40",82.54%
same,% inhibition Apo pol 10',"DRC-1, concentration 80",88.9574%
same,% inhibition Apol 90',"DRC-1, concentration 2.5",6.836%
same,% inhibition Apol 90',"DRC-1, concentration 5",14.8627%
same,% inhibition Apol 90',"DRC-1, concentration 10",39.7229%
same,% inhibition Apol 90',"DRC-1, concentration 20",52.6198%
same,% inhibition Apol 90',"DRC-1, concentration 40",73.85%
same,% inhibition Apol 90',"DRC-1, concentration 80",85.1708%
same,% inhibition apPOL 180',"DRC-1, concentration 2.5",2.031%
same,% inhibition apPOL 180',"DRC-1, concentration 5",3.615%
same,% inhibition apPOL 180',"DRC-1, concentration 10",25.5956%
same,% inhibition apPOL 180',"DRC-1, concentration 20",36.8517%
same,% inhibition apPOL 180',"DRC-1, concentration 40",62.2191%
same,% inhibition apPOL 180',"DRC-1, concentration 80",78.7822%
same,% inhibition Apo pol 5',"DRC-2, concentration 2.5",15%
same,% inhibition Apo pol 5',"DRC-2, concentration 5",23%
same,% inhibition Apo pol 5',"DRC-2, concentration 10",39%
same,% inhibition Apo pol 5',"DRC-2, concentration 20",43%
same,% inhibition Apo pol 5',"DRC-2, concentration 40",51%
same,% inhibition Apo pol 5',"DRC-2, concentration 80",51%
same,% inhibition Apol 40',"DRC-2, concentration 2.5",15%
same,% inhibition Apol 40',"DRC-2, concentration 5",27%
same,% inhibition Apol 40',"DRC-2, concentration 10",46%
same,% inhibition Apol 40',"DRC-2, concentration 20",55%
same,% inhibition Apol 40',"DRC-2, concentration 40",69%
same,% inhibition Apol 40',"DRC-2, concentration 80",72%
same,% inhibition ApPOL 90',"DRC-2, concentration 2.5",13%
same,% inhibition ApPOL 90',"DRC-2, concentration 5",24%
same,% inhibition ApPOL 90',"DRC-2, concentration 10",44%
same,% inhibition ApPOL 90',"DRC-2, concentration 20",53%
same,% inhibition ApPOL 90',"DRC-2, concentration 40",71%
same,% inhibition ApPOL 90',"DRC-2, concentration 80",74%
same,% inhibition apPOL 180',"DRC-2, concentration 2.5",2.39%
same,% inhibition apPOL 180',"DRC-2, concentration 5",13%
same,% inhibition apPOL 180',"DRC-2, concentration 10",32%
same,% inhibition apPOL 180',"DRC-2, concentration 20",43%
same,% inhibition apPOL 180',"DRC-2, concentration 40",66%
same,% inhibition apPOL 180',"DRC-2, concentration 80",74%
same,DNA Pol,"primary screen value, DNA Pol",54
CC1(C)CC(=O)C2=C(C1)OC1=C(C(=O)CC(C)(C)C1)C2c1ccc(O)cc1 [KU0194226],DNA Pol,[1],31
same,% inhibition Apo pol 10',"DRC-1, concentration 2.5",1.4755%
same,% inhibition Apo pol 10',"DRC-1, concentration 5",6.619%
same,% inhibition Apo pol 10',"DRC-1, concentration 10",20.9207%
same,% inhibition Apo pol 10',"DRC-1, concentration 20",40.5777%
same,% inhibition Apo pol 10',"DRC-1, concentration 40",75.7382%
same,% inhibition Apo pol 10',"DRC-1, concentration 80",84.2344%
same,% inhibition Apol 90',"DRC-1, concentration 2.5",3.436%
same,% inhibition Apol 90',"DRC-1, concentration 5",6.7212%
same,% inhibition Apol 90',"DRC-1, concentration 10",20.1854%
same,% inhibition Apol 90',"DRC-1, concentration 20",38.6225%
same,% inhibition Apol 90',"DRC-1, concentration 40",72.348%
same,% inhibition Apol 90',"DRC-1, concentration 80",80.6214%
same,% inhibition apPOL 180',"DRC-1, concentration 2.5",2.939%
same,% inhibition apPOL 180',"DRC-1, concentration 5",5.25%
same,% inhibition apPOL 180',"DRC-1, concentration 10",19.133%
same,% inhibition apPOL 180',"DRC-1, concentration 20",35.7891%
same,% inhibition apPOL 180',"DRC-1, concentration 40",67.9328%
same,% inhibition apPOL 180',"DRC-1, concentration 80",76.0012%
same,% inhibition Apo pol 5',"DRC-2, concentration 2.5",2.55%
same,% inhibition Apo pol 5',"DRC-2, concentration 5",2.7%
same,% inhibition Apo pol 5',"DRC-2, concentration 10",17%
same,% inhibition Apo pol 5',"DRC-2, concentration 20",21%
same,% inhibition Apo pol 5',"DRC-2, concentration 40",37%
same,% inhibition Apo pol 5',"DRC-2, concentration 80",35%
same,% inhibition Apol 40',"DRC-2, concentration 2.5",5.61%
same,% inhibition Apol 40',"DRC-2, concentration 5",-0.353%
same,% inhibition Apol 40',"DRC-2, concentration 10",23%
same,% inhibition Apol 40',"DRC-2, concentration 20",31%
same,% inhibition Apol 40',"DRC-2, concentration 40",52%
same,% inhibition Apol 40',"DRC-2, concentration 80",59%
same,% inhibition ApPOL 90',"DRC-2, concentration 2.5",6%
same,% inhibition ApPOL 90',"DRC-2, concentration 5",-4.67%
same,% inhibition ApPOL 90',"DRC-2, concentration 10",27%
same,% inhibition ApPOL 90',"DRC-2, concentration 20",34%
same,% inhibition ApPOL 90',"DRC-2, concentration 40",57%
same,% inhibition ApPOL 90',"DRC-2, concentration 80",65%
same,% inhibition apPOL 180',"DRC-2, concentration 2.5",5.45%
same,% inhibition apPOL 180',"DRC-2, concentration 5",-63%
same,% inhibition apPOL 180',"DRC-2, concentration 10",27%
same,% inhibition apPOL 180',"DRC-2, concentration 20",36%
same,% inhibition apPOL 180',"DRC-2, concentration 40",61%
same,% inhibition apPOL 180',"DRC-2, concentration 80",70%
same,DNA Pol,"primary screen value, DNA Pol",31
